In patent US20150139936A1, “DOSAGE AND ADMINISTRATION OF BISPECIFIC SCFV CONJUGATES IN COMBINATION WITH ANTI-CANCER THERAPEUTICS” (Merrimack Pharmaceuticals, Inc., priority 2012, published 2015):

What was measured:
[1] = Pre-clinical combination efficacy of MM-111; details: with lapatinib, trastuzumab, paclitaxel or docetaxel
[2] = cited from earlier work
[3] = oral; cited from earlier work

## MM-111: bispecific anti-ErbB2/anti-ErbB3 antibody, scFv HSA conjugate, SEQ ID NO:1
[1]
  combination effect (efficacy): additive

## CC(=O)O[C@@]12CO[C@@H]1C[C@H](O)[C@@]1(C)C(=O)[C@H](O)C3=C(C)[C@@H](OC(=O)[C@H](O)[C@@H](NC(=O)OC(C)(C)C)c4ccccc4)C[C@@](O)([C@@H](OC(=O)c4ccccc4)[C@H]21)C3(C)C [docetaxel, 1,7β,10β-trihydroxy-9-oxo-5β,20-epoxytax-11-ene-2α,4,13α-triyl 4-acetate 2-benzoate 13-{(2R,3S)-3-[(tert-butoxycarbonyl)amino]-2-hydroxy-3-phenylpropanoate}]
[2]
  water solubility: more water soluble than paclitaxel

## CS(=O)(=O)CCNCc1ccc(-c2ccc3ncnc(Nc4ccc(OCc5cccc(F)c5)c(Cl)c4)c3c2)o1 [lapatinib]
[3]
  bioavailability with food consumption: increased
